Data from publication PMC9272937, “Anti-breast cancer sinomenine derivatives via mechanisms of apoptosis induction and metastasis reduction” (Journal of Enzyme Inhibition and Medicinal Chemistry, 2022).
Like-named read-outs stand apart in the source and are kept apart here.

Columns and labels:
[1] = test system: human lung cancer cell line A549; experiment: CCK-8 antiproliferative assay, A549; type: cell-based; settings: CCK-8, 48 h, mean ± SD of three experiments
Protocol: (§1) The antiproliferative activities of target compounds were examined by CCK-8 assay in three cancer cells (human lung cancer cell line A549, human mammary gland tumour cell line MCF-7 and human TNBC cell line MDA-MB-231) and one normal cell (human normal breast cell line MCF10A). All cell lines were sourced from KeyGEN Biotech, […], China, and a standard DMEM medium was applied to all cell cultures then subjected to 24 h incubation at 37 °C in a humidified environment with 5% CO2. After that logarithmic growing cells were plated on 96-well plates with 8,000 cells per well in a […] medium for 24 h incubation at 37 °C with 5% CO2. The DMEM medium with bovine serum was removed from each well. Then, prerequisite target compounds and positive controls were added to different cell lines in a predetermined concentration regiment for 48 h culture.

[2] = Griess assay, NO-releasing capacity; settings: 10^−4 mol/l compound, L-cysteine, 37 °C; for NO peak releasing: 15-180 min
Protocol: The NO-releasing capacity of each target compound was determined by the colorimetric method under the instructions of the manufacturer. Preparation of standard curves of 0, 1.56, 3.13, 6.25, 12.5, 25, 50 and 100 μmol/L nitrite nitrogen series standard solution was prepared. 50 μL to 96-well plate was added respectively and then mixed with 50 μL Griess I and Griess II; the absorption value was measured at 540 nm wavelength. A standard curve was drawn from the obtained data. Compounds were formulated into 10^−4 mol/l with PBS (pH = 7.4) and pharmaceutical DMSO. The newly formulated L-cysteine solution 100 μL ([…]) was added and incubated at 37 °C for 15, 30, 45, 60, 90, 120, 150 and180 min, respectively. Griess I and II recovered to room temperature, 50 μL of compounds 7A–E(a–c) were added respectively into the 96-well plate, and then 50 μL of Griess I and 50 μL of Griess II were added in sequence, with the absorbance tested at 540 nm. The amount of NO released was then calculated according to the standard curve.

[3] = test system: human TNBC cell line MDA-MB-231; experiment: CCK-8 antiproliferative assay, MDA-MB-231; type: cell-based; settings: for IC50: Homo sapiens, read-out: IC50 MDA-MB-231; for SI MDA-MB-231 (selectivity index): SI = IC50(MCF-10A)/IC50(MDA-MB-231)
Protocol: as §1

[4] = test system: human normal breast cell line MCF10A; experiment: CCK-8 assay, normal cells MCF10A; type: cell-based; settings: MCF-10A, CCK-8, 48 h, mean ± SD of three experiments
Protocol: as §1

[5] = test system: human mammary gland tumour cell line MCF-7; experiment: CCK-8 antiproliferative assay, MCF-7; type: cell-based; settings: for IC50: Homo sapiens, read-out: IC50 MCF-7; for SI MCF-7 (selectivity index): SI = IC50(MCF-10A)/IC50(MCF-7)
Protocol: as §1

Compound | IC50 ([1]; Homo sapiens, A549) | NO peak releasing [2] | IC50 ([3]; MDA-MB-231, 48 h) | SI MDA-MB-231 (selectivity index) [3] | IC50 [4] | IC50 ([5]; MCF7, 48 h) | SI MCF-7 (selectivity index) [5] | NO release at 180 min ([2]; 180 min) | IC50 ([3]; MDA-MB-231, CCK-8, 48 h, mean ± SD of three experiments) | IC50 ([5]; MCF7, CCK-8, 48 h, mean ± SD of three experiments) | IC50 [1]
COC1=CC2[C@H]3Cc4ccc(OC)c(OC(=O)CCC(=O)OCCOc5no[n+]([O-])c5S(=O)(=O)c5ccccc5)c4[C@@]2(CCN3C)CC1=O (stereo partly drawn) [7Aa, 4–(2-((4-(((4bs,9R)-3,7-Dimethoxy-11-methyl-6-oxo-6,8a,9,10-tetrahydro-5H-9,4b-(epiminoethano)phenanthren-4-yl)oxy)-4-oxobutanoyl)oxy)ethoxy)-3-(phenylsulfonyl)-1,2,5-oxadiazole 2-oxide] | 15.2 ± 1.37 µM | exceeding 40 μmol/L | 31.5 ± 2.77 µM | >1.58 | > 50 µM | 26.4 ± 1.25 µM | >1.89 | – | – | – | –
COC1=CC2[C@H]3Cc4ccc(OC)c(OC(=O)CCCC(=O)OCCOc5no[n+]([O-])c5S(=O)(=O)c5ccccc5)c4[C@@]2(CCN3C)CC1=O (stereo partly drawn) [7Ab, 4–(2-((5-(((4bs,9R)-3,7-Dimethoxy-11-methyl-6-oxo-6,8a,9,10-tetrahydro-5H-9,4b-(epiminoethano)phenanthren-4-yl)oxy)-5-oxopentanoyl)oxy)ethoxy)-3-(phenylsulfonyl)-1,2,5-oxadiazole 2-oxide] | 9.41 ± 0.68 µM | – | 29.6 ± 1.8 µM | >1.69 | > 50 µM | 15.3 ± 0.94 µM | >3.27 | – | – | – | –
COC1=CC2[C@H]3Cc4ccc(OC)c(OC(=O)c5ccccc5C(=O)OCCOc5no[n+]([O-])c5S(=O)(=O)c5ccccc5)c4[C@@]2(CCN3C)CC1=O (stereo partly drawn) [7Ac, 4–(2-((2-((((4bs,9R)-3,7-Dimethoxy-11-methyl-6-oxo-6,8a,9,10-tetrahydro-5H-9,4b-(epiminoethano)phenanthren-4-yl)oxy)carbonyl)benzoyl)oxy)ethoxy)-3-(phenylsulfonyl)-1,2,5-oxadiazole 2-oxide] | 2.33 ± 0.15 µM | exceeding 40 μmol/L | 1.62 ± 0.15 µM | 13.30 | 21.5 ± 0.88 µM | 5.87 ± 0.42 µM | 3.67 | – | – | – | –
COC1=CC2C3Cc4ccc(OC)c(OC(=O)CCC(=O)OCCCOc5no[n+]([O-])c5S(=O)(=O)c5ccccc5)c4C2(CCN3C)CC1=O (stereo not shown) [7Ba] | 9.84 ± 0.47 µM | – | 24.2 ± 1.97 µM | >2.06 | > 50 µM | 19 ± 1.33 µM | >2.64 | 68.4 µmol/L | – | – | –
COC1=CC2[C@H]3Cc4ccc(OC)c(OC(=O)CCCC(=O)OCCCOc5no[n+]([O-])c5S(=O)(=O)c5ccccc5)c4[C@@]2(CCN3C)CC1=O (stereo partly drawn) [7Bb, 4–(3-((5-(((4bs,9R)-3,7-Dimethoxy-11-methyl-6-oxo-6,8a,9,10-tetrahydro-5H-9,4b-(epiminoethano)phenanthren-4-yl)oxy)-5-oxopentanoyl)oxy)propoxy)-3-(phenylsulfonyl)-1,2,5-oxadiazole 2-oxide] | 4.91 ± 0.3 µM | – | 16.4 ± 1.55 µM | >3.04 | > 50 µM | 19.7 ± 1.28 µM | >2.54 | – | – | – | –
COC1=CC2[C@H]3Cc4ccc(OC)c(OC(=O)c5ccccc5C(=O)OCCCOc5no[n+]([O-])c5S(=O)(=O)c5ccccc5)c4[C@@]2(CCN3C)CC1=O (stereo partly drawn) [7Bc, 4–(3-((2-((((4bs,9R)-3,7-Dimethoxy-11-methyl-6-oxo-6,8a,9,10-tetrahydro-5H-9,4b-(epiminoethano)phenanthren-4-yl)oxy)carbonyl)benzoyl)oxy)propoxy)-3-(phenylsulfonyl)-1,2,5-oxadiazole 2-oxide] | 5.05 ± 0.21 µM | – | 18.7 ± 0.61 µM | >2.67 | > 50 µM | 12.2 ± 0.92 µM | >4.11 | – | – | – | –
COC1=CC2[C@H]3Cc4ccc(OC)c(OC(=O)CCC(=O)OCCCCOc5no[n+]([O-])c5S(=O)(=O)c5ccccc5)c4[C@@]2(CCN3C)CC1=O (stereo partly drawn) [7Ca, 4–(4-((4-(((4bs,9R)-3,7-Dimethoxy-11-methyl-6-oxo-6,8a,9,10-tetrahydro-5H-9,4b-(epiminoethano)phenanthren-4-yl)oxy)-4-oxobutanoyl)oxy)butoxy)-3-(phenylsulfonyl)-1,2,5-oxadiazole 2-oxide] | 2.97 ± 0.14 µM | exceeding 40 μmol/L | 2.26 ± 0.19 µM | 18 | 40.7 ± 2.79 µM | 2.55 ± 0.14 µM | 15.95 | – | – | – | –
COC1=CC2[C@H]3Cc4ccc(OC)c(OC(=O)CCCC(=O)OCCCCOc5no[n+]([O-])c5S(=O)(=O)c5ccccc5)c4[C@@]2(CCN3C)CC1=O (stereo partly drawn) [7Cb, 4–(4-((5-(((4bs,9R)-3,7-Dimethoxy-11-methyl-6-oxo-6,8a,9,10-tetrahydro-5H-9,4b-(epiminoethano)phenanthren-4-yl)oxy)-5-oxopentanoyl)oxy)butoxy)-3-(phenylsulfonyl)-1,2,5-oxadiazole 2-oxide] | 3.53 ± 0.29 µM | – | 1.47 ± 0.14 µM | 24.97 | 36.7 ± 1.02 µM | 4.68 ± 0.39 µM | 7.84 | – | – | – | –
COC1=CC2[C@H]3Cc4ccc(OC)c(OC(=O)CCCC(=O)OCCCCCOc5no[n+]([O-])c5S(=O)(=O)c5ccccc5)c4[C@@]2(CCN3C)CC1=O (stereo partly drawn) [7Db, 4-((5-((5-(((4bs,9R)-3,7-Dimethoxy-11-methyl-6-oxo-6,8a,9,10-tetrahydro-5H-9,4b-(epiminoethano)phenanthren-4-yl)oxy)-5-oxopentanoyl)oxy)pentyl)oxy)-3-(phenylsulfonyl)-1,2,5-oxadiazole 2-oxide] | 3.92 ± 0.31 µM | – | 3.11 ± 0.22 µM | 12.69 | 39.5 ± 2.9 µM | 2.94 ± 0.27 µM | 13.43 | – | – | – | –
COC1=CC2[C@H]3Cc4ccc(OC)c(OC(=O)CCC(=O)OCCCCCCOc5no[n+]([O-])c5S(=O)(=O)c5ccccc5)c4[C@@]2(CCN3C)CC1=O (stereo partly drawn) [7Ea, 4-((6-((4-(((4bs,9R)-3,7-Dimethoxy-11-methyl-6-oxo-6,8a,9,10-tetrahydro-5H-9,4b-(epiminoethano)phenanthren-4-yl)oxy)-4-oxobutanoyl)oxy)hexyl)oxy)-3-(phenylsulfonyl)-1,2,5-oxadiazole 2-oxide] | 4.62 ± 0.16 µM | – | 19 ± 0.7 µM | 2.30 | 43.6 ± 2.65 µM | 25.3 ± 0.9 µM | 2.79 | – | – | – | –
COC1=CC2[C@H]3Cc4ccc(OC)c(OC(=O)CCCC(=O)OCCCCCCOc5no[n+]([O-])c5S(=O)(=O)c5ccccc5)c4[C@@]2(CCN3C)CC1=O (stereo partly drawn) [7Eb, 4-((6-((5-(((4bs,9R)-3,7-Dimethoxy-11-methyl-6-oxo-6,8a,9,10-tetrahydro-5H-9,4b-(epiminoethano)phenanthren-4-yl)oxy)-5-oxopentanoyl)oxy)hexyl)oxy)-3-(phenylsulfonyl)-1,2,5-oxadiazole 2-oxide] | 4.55 ± 0.43 µM | – | 41.5 ± 1.48 µM | >1.21 | > 50 µM | 17.9 ± 1.26 µM | >2.79 | – | – | – | –
COC1=CC2[C@H]3Cc4ccc(OC)c(OC(=O)c5ccccc5C(=O)OCCCCCCOc5no[n+]([O-])c5S(=O)(=O)c5ccccc5)c4[C@@]2(CCN3C)CC1=O (stereo partly drawn) [7Ec, 4-((6-((2-((((4bs,9R)-3,7-Dimethoxy-11-methyl-6-oxo-6,8a,9,10-tetrahydro-5H-9,4b-(epiminoethano)phenanthren-4-yl)oxy)carbonyl)benzoyl)oxy)hexyl)oxy)-3-(phenylsulfonyl)-1,2,5-oxadiazole 2-oxide] | 4.81 ± 0.18 µM | – | 1.81 ± 0.13 µM | 26.70 | 48.3 ± 3.78 µM | 3.94 ± 0.28 µM | 12.26 | – | – | – | –
COc1cccc2c1C(=O)c1c(O)c3c(c(O)c1C2=O)C[C@@](O)(C(=O)CO)C[C@@H]3O[C@H]1C[C@H](N)[C@H](O)[C@H](C)O1 [Adriamycin, adriamycin, reference compound] | – | – | – | – | – | – | – | – | 4.92 ± 0.44 µM | 5.12 ± 0.31 µM | –
N.N.[Cl][Pt][Cl] [Cisplatin, cisplatin, reference compound] | – | – | – | – | – | – | – | – | – | – | 4.97 ± 0.37 µM
